Experimental data from patent US20200291018A1, “TAM KINASE INHIBITORS” (SYROS PHARMACEUTICALS, INC., priority 2017, published 2020).

Columns and labels:
TYRO3 = molecular target: T1, TYRO3 (Homo sapiens, UniProt Q06418); test: TR-FRET kinase activity assay, TYRO3; type: biochemical; conditions: ATP at Km, 60 minutes
T1 sequence (Q06418 41-890): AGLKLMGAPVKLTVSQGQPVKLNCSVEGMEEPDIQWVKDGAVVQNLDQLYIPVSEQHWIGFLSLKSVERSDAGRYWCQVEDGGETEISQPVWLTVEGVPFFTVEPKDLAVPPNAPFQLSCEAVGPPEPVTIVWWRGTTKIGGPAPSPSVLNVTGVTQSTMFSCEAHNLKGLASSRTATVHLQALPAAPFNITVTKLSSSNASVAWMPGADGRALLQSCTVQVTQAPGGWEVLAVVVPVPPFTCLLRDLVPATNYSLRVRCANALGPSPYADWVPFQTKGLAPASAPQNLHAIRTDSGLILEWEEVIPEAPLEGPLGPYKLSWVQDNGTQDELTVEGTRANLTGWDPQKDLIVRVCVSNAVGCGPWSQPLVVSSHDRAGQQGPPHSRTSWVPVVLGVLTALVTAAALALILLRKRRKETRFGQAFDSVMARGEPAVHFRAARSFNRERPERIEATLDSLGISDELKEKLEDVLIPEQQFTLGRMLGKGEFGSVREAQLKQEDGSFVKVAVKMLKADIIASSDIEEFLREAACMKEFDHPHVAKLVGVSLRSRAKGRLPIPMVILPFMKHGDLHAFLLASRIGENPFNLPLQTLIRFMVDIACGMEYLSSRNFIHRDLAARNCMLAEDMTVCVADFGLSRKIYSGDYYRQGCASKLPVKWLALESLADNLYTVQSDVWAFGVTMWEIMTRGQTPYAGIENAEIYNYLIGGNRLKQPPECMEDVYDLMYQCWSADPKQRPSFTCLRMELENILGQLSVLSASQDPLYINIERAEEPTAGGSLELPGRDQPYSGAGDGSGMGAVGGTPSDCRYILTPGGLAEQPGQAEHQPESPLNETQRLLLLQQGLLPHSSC
Procedure: (§1) IC50 values for compound inhibition of AXL, FLT3, MERTK and TYRO3 activity were determined using a TR-FRET activity assay. A peptide substrate with a fluorescent label is phosphorylated on a tyrosine by each enzyme, where the now phosphorylated product is bound by a Europium-labeled antibody specific to that phosphorylation site. The proximity between the antibody and the substrate gives a signal known as TR-FRET. As the enzyme is inhibited by compound, less phosphorylated peptide product is made, causing a decrease in overall signal.
(§2) Activity assays were performed in a 384-well, small volume, black microplates in an active enzyme volume of 10 uL and final developed volume of 20 uL. Final assay conditions are 50 mM HEPES pH 7.5, 10 mM MgCl2, 1 mM EGTA, 0.01% Brij 35 and 1 mM DTT, all at RT. Enzyme, substrate-labeled peptide and compound are mixed, and then the reaction is initiated with the addition of ATP at Km concentration for each enzyme. The reaction is allowed to run 60 minutes and then quenched with a 12.5 mM EDTA (ethylenediamine tetraacetic acid) solution. The plate is then developed with the addition of Europium-labeled antibody for a final volume of 20 uL and is then incubated for 30 minutes in darkness. Plates are read in a PHERASTAR® plate reader. Data are analyzed in GraphPad PRISM.

FLT3 = molecular target: T2, FLT3 (Homo sapiens, UniProt P36888); test: TR-FRET kinase activity assay, FLT3; type: biochemical; conditions: ATP at Km, 60 minutes
T2 sequence (P36888 27-993): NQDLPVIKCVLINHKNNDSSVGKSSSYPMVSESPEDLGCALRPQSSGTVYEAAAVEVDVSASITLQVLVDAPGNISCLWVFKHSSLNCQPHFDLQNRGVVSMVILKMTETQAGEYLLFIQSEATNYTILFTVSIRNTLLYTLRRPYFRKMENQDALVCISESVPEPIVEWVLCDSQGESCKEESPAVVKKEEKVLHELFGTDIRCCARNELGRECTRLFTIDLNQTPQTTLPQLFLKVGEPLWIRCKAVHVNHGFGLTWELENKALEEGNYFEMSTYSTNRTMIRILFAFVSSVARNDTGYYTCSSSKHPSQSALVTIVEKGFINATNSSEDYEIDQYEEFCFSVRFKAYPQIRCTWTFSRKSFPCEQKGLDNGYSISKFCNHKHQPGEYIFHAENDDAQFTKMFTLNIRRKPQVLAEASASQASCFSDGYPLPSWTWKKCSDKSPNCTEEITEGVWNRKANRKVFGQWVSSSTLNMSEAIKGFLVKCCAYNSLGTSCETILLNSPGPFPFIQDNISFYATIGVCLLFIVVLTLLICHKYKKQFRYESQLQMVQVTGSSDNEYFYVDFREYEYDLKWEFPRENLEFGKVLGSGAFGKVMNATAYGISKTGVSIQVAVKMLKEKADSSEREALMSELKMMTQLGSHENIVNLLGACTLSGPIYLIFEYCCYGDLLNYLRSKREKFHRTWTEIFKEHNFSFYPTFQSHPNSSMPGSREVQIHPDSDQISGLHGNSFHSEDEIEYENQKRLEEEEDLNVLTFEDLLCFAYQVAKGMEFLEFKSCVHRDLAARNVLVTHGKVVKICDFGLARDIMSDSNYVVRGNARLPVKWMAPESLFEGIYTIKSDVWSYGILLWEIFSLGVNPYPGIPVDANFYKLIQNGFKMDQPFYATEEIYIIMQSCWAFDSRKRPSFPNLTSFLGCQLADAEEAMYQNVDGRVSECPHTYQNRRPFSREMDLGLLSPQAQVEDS
Procedure: as §1, §2

## O[C@H]1CC[C@H](c2cnc(OC3CCNCC3)c3cnc(N[C@@H]4CCCOC4)nc32)CC1 [Compound 232]
TYRO3
  IC50: 0.1 to 1 µM
FLT3
  IC50: 0.1 to 1 µM

## CC[C@H](C)Nc1ncc2c(OC3CCN(S(C)(=O)=O)CC3)ncc([C@H]3CC[C@H](O)CC3)c2n1 [Compound 233]
TYRO3
  IC50: ≤ 0.1 µM
FLT3
  IC50: 0.1 to 1 µM

## CC[C@H](C)Nc1ncc2c(=O)n(C3CCN(S(C)(=O)=O)CC3)cc([C@H]3CC[C@H](O)CC3)c2n1 [Compound 234]
TYRO3
  IC50: ≤ 0.1 µM
FLT3
  IC50: 1 to 10 µM

## CCOc1ncc([C@H]2CC[C@H](O)CC2)c2nc(N[C@@H](C)CC)ncc12 [Compound 235]
TYRO3
  IC50: ≤ 0.1 µM
FLT3
  IC50: 0.1 to 1 µM

## CCOc1ncc(CC2CCNCC2)c2nc(N[C@@H](C)CC)ncc12 [Compound 236]
TYRO3
  IC50: 0.1 to 1 µM
FLT3
  IC50: 0.1 to 1 µM

## CC[C@H](C)Nc1ncc2c(OC3C[C@H]4CC[C@@H](C3)O4)ncc([C@H]3CC[C@H](O)CC3)c2n1 (some centres unmarked) [Compound 237]
TYRO3
  IC50: 1 to 10 µM
FLT3
  IC50: 1 to 10 µM

## CC[C@H](C)Nc1ncc2c(NC34CCC(O)(CC3)CC4)ncc([C@H]3CC[C@H](O)CC3)c2n1 [Compound 238]
TYRO3
  IC50: 1 to 10 µM
FLT3
  IC50: 0.1 to 1 µM

## CC[C@H](C)Nc1ncc2c(OC3CCN(C)CC3)ncc([C@H]3CC[C@H](O)CC3)c2n1 [Compound 239]
TYRO3
  IC50: ≤ 0.1 µM
FLT3
  IC50: 1 to 10 µM

## CC[C@H](C)Nc1ncc2c(C3CCN(C)CC3)ncc([C@H]3CC[C@H](O)CC3)c2n1 [Compound 240]
TYRO3
  IC50: 0.1 to 1 µM
FLT3
  IC50: 1 to 10 µM

## CC[C@H](C)Nc1ncc2c(OC(CO)CO)ncc([C@H]3CC[C@H](O)CC3)c2n1 [Compound 241]
TYRO3
  IC50: ≤ 0.1 µM
FLT3
  IC50: 1 to 10 µM

## COC[C@H](C)Nc1ncc2c(OC3CCOCC3)ncc(C3=CCC4(CC3)OCCO4)c2n1 [Compound 242]
TYRO3
  IC50: 0.1 to 1 µM
FLT3
  IC50: 1 to 10 µM

## COC[C@H](C)Nc1ncc2c(OC3CCOCC3)ncc(C3CCC4(CC3)OCCO4)c2n1 [Compound 243]
TYRO3
  IC50: 1 to 10 µM
FLT3
  IC50: 1 to 10 µM

## CCc1ncc([C@H]2CC[C@H](O)CC2)c2nc(N[C@@H](C)CC)ncc12 [Compound 244]
TYRO3
  IC50: 1 to 10 µM
FLT3
  IC50: 1 to 10 µM

## CC[C@H](C)Nc1ncc2c(OCC(F)(F)F)ncc([C@H]3CC[C@H](O)CC3)c2n1 [Compound 245]
TYRO3
  IC50: ≤ 0.1 µM
FLT3
  IC50: 0.1 to 1 µM

## CC[C@H](C)Nc1ncc2c(OC3CC(C)(C)NC(C)(C)C3)ncc([C@H]3CC[C@H](O)CC3)c2n1 [Compound 246]
TYRO3
  IC50: ≤ 0.1 µM
FLT3
  IC50: 1 to 10 µM

## CC[C@H](C)Nc1ncc2c(OC3C[C@@H](C)O[C@@H](C)C3)ncc([C@H]3CC[C@H](O)CC3)c2n1 (some centres unmarked) [Compound 247]
TYRO3
  IC50: 0.1 to 1 µM
FLT3
  IC50: 1 to 10 µM

## CC[C@H](C)Nc1ncc2c(=O)n(CC34CCC(N)(CC3)CC4)cc([C@H]3CC[C@H](O)CC3)c2n1 [Compound 251]
TYRO3
  IC50: ≤ 0.1 µM
FLT3
  IC50: 1 to 10 µM

## CCOc1ncc(CC2CCN(C)CC2)c2nc(N[C@@H](C)CC)ncc12 [Compound 253]
TYRO3
  IC50: 0.1 to 1 µM
FLT3
  IC50: 1 to 10 µM

## CCOc1ncc(CC2CCN(C(=O)OC(C)(C)C)CC2)c2nc(N[C@@H](C)CC)ncc12 [Compound 254]
TYRO3
  IC50: 1 to 10 µM
FLT3
  IC50: 1 to 10 µM
